# How the values were obtained:
# [1] = system: USC-04 glioma cancer stem cells; assay: MTT cytotoxicity assay, USC-04 glioma cancer stem cells; assay type: cell-based; conditions: USC-04; increasing concentrations (TMZ 0-400 uM; POH 0-2 mM)
# Excerpt: Cancer Lett. 2011 Mar. 28; 302(2):100-8.
# [2] = system: cyclobutane pyrimidine dimers (CPD) and pyrimidine (6-4) pyrimidone photoproducts (6-4PP); assay: DNA damage (6-4PP and CPD) in UV exposed mouse skin; assay type: in vivo; conditions: skin DNA following UV exposure
# Excerpt: FIGS. 26A and 26B show the DNA damage that occurs following UV exposure with and without POH-LA conjugate treatment. Upon euthanasia of animals, skin tissues were collected from the back of the animals, fixed in formalin, and processed for analysis. Absorption of ultraviolet (UV) light produces two predominant types of DNA damage, cyclobutane pyrimidine dimers (CPD) and pyrimidine (6-4) pyrimidone photoproducts (6-4PP). UV DNA Damage standards for comparison to UV exposed mouse skin extracted DNA were used. Both the standard and sample DNA are first heat denatured before they are adsorbed onto a 96-well DNA high-binding plate. The 6-4PP (FIG. 26A) and CPDs (FIG. 26B) present in the sample or standard are probed with an anti6-4PP or CPD antibody, followed by an HRP conjugated secondary antibody. The 6-4PP or CPD content in an unknown sample is determined by comparing with a standard curve that is prepared from predetermined CPD-DNA standards 1,000-1.56 ng/ml). […] The skin has important barrier, sensory, and immune functions, contributing to the health and integrity of the organism. […]
# FIGS. 26A and 26B show the DNA damage that occurs following UV exposure with and without POH-LA conjugate treatment. […] The 6-4PP or CPD content in an unknown sample is determined by comparing with a standard curve that is prepared from predetermined CPD-DNA standards 1,000-1.56 ng/ml).
smiles,measurement,setting,value
"C=C(C)[C@@H]1CC=C(CO)CC1 [POH, perillyl alcohol]",cytotoxicity (MTT),[1],demonstrated cytotoxicity
"C=C(C)[C@@H]1CC=C(COC(=O)CCCCCCC/C=C\C/C=C\CCCCC)CC1 [POH-LA conjugate, Octadeca-9,12-dienoic acid 4-isopropenyl-cyclohex-1-enylmethyl ester]",DNA damage (6-4PP and CPD content),[2],less DNA damage

# From patent publication US20240197891A1, “PHARMACEUTICAL COMPOSITIONS COMPRISING POH DERIVATIVES” (UNIVERSITY OF SOUTHERN CALIFORNIA, priority 2021, published 2024)
